Assay results: the supplement of paper PMC10307832

Legend:
Test in all cases: relative viability (nuclei count vs DMSO), 5 days (fraction); higher = more cells survive
Metformin + OSI-027 = compound: CN(C)C(=N)NC(=N)N [Metformin] + COc1cccc2cc(-c3nc([C@H]4CC[C@H](C(=O)O)CC4)n4ncnc(N)c34)[nH]c12 [OSI-027] (partner 0.5 µM)
Outline: (§1)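 A single step with final 0.05% Triton X-100, 1% formaldehyde and 1 ug/ml Hoechst fixed the cells and stained nuclei 5 days after treatment. Lung cancer cell lines in 1536-well plates had been treated by pin tool the day after seeding with one drug alone or a fixed anchor-drug dose plus five library-drug doses (not always all listed) in √10 steps, and nuclei were counted on 4× images. Relative viability is the ratio of nuclei in treated wells to nuclei in vehicle wells, taken as the median of duplicate plates.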

Metformin + Linsitinib = compound: CN(C)C(=N)NC(=N)N [Metformin] + C[C@]1(O)C[C@@H](c2nc(-c3ccc4ccc(-c5ccccc5)nc4c3)c3c(N)nccn32)C1 [Linsitinib] (partner 1 µM)
Outline: as §1

Metformin + Phenformin = compound: CN(C)C(=N)NC(=N)N [Metformin] + N=C(N)NC(=N)NCCc1ccccc1 [Phenformin] (partner 250 µM)
Outline: as §1

Apatinib + Luminespib = compound: N#CC1(c2ccc(NC(=O)c3cccnc3NCc3ccncc3)cc2)CCCC1 [Apatinib] + CCNC(=O)c1noc(-c2cc(C(C)C)c(O)cc2O)c1-c1ccc(CN2CCOCC2)cc1 [Luminespib] (partner 0.01 µM)
Outline: as §1

Row | Cell Line | relative viability (Metformin + OSI-027; first compound 10 µM) | relative viability (Metformin + OSI-027; first compound 31.62 µM) | relative viability (Metformin + OSI-027; first compound 100 µM) | relative viability (Metformin + OSI-027; first compound 316.23 µM) | relative viability (Metformin + OSI-027; first compound 1000 µM) | relative viability (Metformin + Linsitinib; first compound 10 µM) | relative viability (Metformin + Linsitinib; first compound 31.62 µM) | relative viability (Metformin + Linsitinib; first compound 100 µM) | relative viability (Metformin + Linsitinib; first compound 316.23 µM) | relative viability (Metformin + Linsitinib; first compound 1000 µM) | relative viability (Metformin + Phenformin; first compound 10 µM) | relative viability (Metformin + Phenformin; first compound 31.62 µM) | relative viability (Metformin + Phenformin; first compound 100 µM) | relative viability (Metformin + Phenformin; first compound 316.23 µM) | relative viability (Metformin + Phenformin; first compound 1000 µM) | relative viability (Apatinib + Luminespib; first compound 0.08 µM) | relative viability (Apatinib + Luminespib; first compound 0.253 µM) | relative viability (Apatinib + Luminespib; first compound 0.8 µM) | relative viability (Apatinib + Luminespib; first compound 2.53 µM) | relative viability (Apatinib + Luminespib; first compound 8 µM)
1 | LCLC-103H | 0.51 | 0.624 | 0.555 | 0.461 | 0.506 | 1.05 | 1.26 | 1.06 | 1.12 | 1.19 | 0.337 | 0.374 | 0.407 | 0.324 | 0.398 | 0.969 | 0.949 | 0.864 | 0.957 | 0.735
2 | CAL-12T | 0.678 | 0.94 | 0.581 | 0.39 | 0.605 | 0.818 | 0.81 | 0.824 | 0.691 | 0.759 | 0.635 | 0.61 | 0.634 | 0.555 | 0.604 | 0.565 | 0.315 | 0.261 | 0.882 | 0.661
3 | PC-14 | 0.648 | 0.929 | 0.657 | 0.607 | 0.574 | 1.03 | 0.955 | 0.916 | 0.918 | 1.03 | 0.72 | 0.808 | 0.77 | 0.659 | 0.697 | 0.121 | 0.15 | – | 0.167 | 0.144
4 | NCI-H2009 | 0.754 | 0.821 | 0.752 | 0.692 | 0.601 | 1.22 | 1.17 | 1.17 | 0.781 | 0.9 | 0.504 | 0.499 | 0.565 | 0.412 | 0.425 | 1.1 | 1.09 | 0.988 | 0.992 | 0.86
5 | NCI-H2347 | 0.416 | 0.486 | – | 0.466 | 0.415 | 0.753 | 0.89 | 0.973 | 0.862 | 0.943 | 0.384 | 0.363 | – | 0.422 | 0.404 | 0.501 | 0.415 | 0.404 | 0.416 | 0.789
6 | NCI-H23 | 0.594 | 0.665 | 0.559 | 0.523 | 0.664 | 0.701 | 0.623 | 0.705 | 0.675 | 0.763 | 0.743 | 0.716 | 0.716 | 0.729 | 0.897 | 0.23 | 0.22 | 0.211 | 0.2 | 0.213
